We go through one compound from patent publication US20010051602A1, “Methods for increasing ApoE levels for the treatment of neurodegenerative disease” (priority 1997, published 2001).

For experiment [1], the system named is Alzheimer's disease. In words: clinical trial: Global Deterioration Scale. Type of experiment: in vivo, human. Also on record: Global Deterioration Scale, 3 months / Global Deterioration Scale, 6 months / Global Deterioration Scale, 3 months, Average / Global Deterioration Scale, 6 months, Average: scale not given here. The protocol:
Neuropsychological Assessment: The Clinical Impression of Change (CIBIC-Plus) and the Global Deterioration Scale (GDS) were recorded at 3 and 6 months. The Clinical Impression of Change (CIBIC-Plus) consists of the holistic impression by the clinician of whether the patient has shown any change since baseline as rated on a seven point sale (marked, moderate, mild improvement, no change, or marked, moderate, mild decline). The Global Deterioration Scale rates clinically identifiable stages of dementia. […] The GDS test provides a description of the key features of AD progression. […] The GDS is calculated as the average of scores related to the performance in the following areas of attention and concentration, recent memory, past memory, orientation, and functioning and self care.

A further experiment has as its system β-amyloid protein (1-42). In words: clinical trial: CSF β-amyloid (1-42). Type of experiment: in vivo, human. Conditions: individual AD patient. From the text:
Biological Markers: Additional biochemical markers included phenotyping of the patients ApoE and determining relative concentrations of tau protein, P-amyloid protein (1-42 and 1-40); and relative extent of lipid peroxidation.
Tables 11 and 12 summarize the changes in total β-amyloid protein (1-40 and 1-42) at one month, as a percentage of the baseline values.

In another experiment the test system is plasma apolipoproteins. The settings on record: cited from earlier work.
The subject of another experiment is ApoE-knockout mice. Kind of experiment: ApoE knockout mouse transient focal ischemia stroke model. Type of experiment: in vivo. Conditions: 5 mg i.p. daily for ten days, if ApoE induction is necessary for neuroprotection. The protocol:
To extend these animal studies, the ApoE knockout mouse may be exploited to assess the role of ApoE in probucol-mediated neuroprotection for stroke.
This protocol is carried out as similarly described for the rat model above, with some modifications. […] On the tenth day, animals are subjected to a transient focal ischemia by intraluminal occlusion of the middle cerebral artery. Infarct volume, neurological outcome, and cerebral flow will be monitored.

For experiment [2], the system named is Alzheimer's disease. In words: clinical trial: Clinical Impression of Change (CIBIC-Plus). Type of experiment: in vivo, human. Also noted: key to CIBIC Scores, 3 months, Average / CIBIC Scores, 6 months, Average: 7-point scale: 1 = very much improved, 4 = no change, 7 = very much worse. The protocol: Neuropsychological Assessment: The Clinical Impression of Change (CIBIC-Plus) and the Global Deterioration Scale (GDS) were recorded at 3 and 6 months. The Clinical Impression of Change (CIBIC-Plus) consists of the holistic impression by the clinician of whether the patient has shown any change since baseline as rated on a seven point sale (marked, moderate, mild improvement, no change, or marked, moderate, mild decline). The Global Deterioration Scale rates clinically identifiable stages of dementia. […] This test provides a holistic impression by the clinician of whether the patient has shown any change since baseline. The CIBIC is scored as a seven point scale, with a range from 1=“very much improved” to 4=“no change” to 7=“very much worse.” Changes in the CIBIC score have shown only weak correlation with changes in the ADAS-Cog and have been reported to be less sensitive to change than other measures. The FDA guidelines are widely interpreted as mandating the use of the CIBIC and this scale serves to measure the impact of treatment protocols on the quality of life for the patient.

In another experiment the test system is ApoE. Kind of experiment: ApoE in medium of rat primary type 1 astrocyte cultures exposed to probucol, immunoblot. Type of experiment: cell-based. As for the experimental part: Apo E concentration was assessed in the cell culture medium by immunoblot analysis using methods previously described (Poirier et al., Neuroscience, 55:81-90 (1993)). In the absence of probucol (EtOH control) very little ApoE is detected in the media (i.e., the extracellular compartment). […] We also observed that the amount of ApoE detected in the media at 48 hours was less than the amount of ApoE in the media after only 24 hours of incubation. This time-dependent response in ApoE levels may reflect the continued division and growth of cells.

The test system of the next experiment is lipid peroxidation. In words: clinical trial: lipid peroxidation in the CSF (TBARS). Type of experiment: in vivo, human. As for the experimental part:
In order to assess the antioxidant properties of probucol we analyzed lipid peroxidation levels in the CSF of patients before and after one month of treatment with probucol (one month). In vitro lipid peroxidation was measured according to the method of Ohkawa et al. (Anal. Biochem., 95:351-358 (1979)) with some modifications. Briefly, cerebrospinal fluid samples from Alzheimer's disease patients were prepared in 20 volumes of phosphate buffer (pH=7) (95% N2, 5% CO2) with a Teflon homogenizer. After centrifugation (1000 g, 10 min., 2° C.), the supernatant was precipitated with trichloroacetic acid (72%) according to Brown et al. (Anal. Biochem., 189:136-139 (1989)). This procedure removed material such as non-lipid-derived malondialdehyde (MDA) that could interfere with lipid peroxidation measurement. After precipitation with trichloracetic acid and centrifugation (10000 g, 15 min., 2° C.), 100 μl of the supernatant containing human brain homogenates was used to measure MDA levels. These supernatants were incubated with 20 μl of SDS 10%, 150 μl of acetic acid 20% (pH 3.5), and 150 μl of thiobarbituric acid (TBA) (0.6% in 0.05 N NaOH) and heated at 100° C. for 60 min. This step was performed under a controlled atmosphere (95% N^2, 5% CO^2) in sealed vials to avoid formation of MDA during heating. At the end of the incubation, the reaction was stopped at 4° C. The MDA-TBA complex of TBARS (thiobarbituric acid reactive substances) was then extracted with 300 μl of butanol/pyridine (15:1) by strong shaking (for 30 sec.) followed by centrifugation (1000 g, 10 min., 4° C.).

[3] abbreviates: average of patients, baseline average 4.7.
The mark [4] stands for this setting: individual AD patient, 1 very much improved, 4 no change, 7 very much worse.

The structures appear in SMILES notation. Several values for one entry are separate records, joined by “and”; a condition that tells them apart may be missing. Identical values can stand only once.

As for `CC(C)(Sc1cc(C(C)(C)C)c(O)c(C(C)(C)C)c1)Sc1cc(C(C)(C)C)c(O)c(C(C)(C)C)c1` [probucol], in the experiment on Alzheimer's disease [1] (at three and six months), the “patient symptoms on the Global Deterioration Scale” value was “relative stabilization”. In the experiment on Alzheimer's disease [1] (setting [3]), the “Global Deterioration Scale, 3 months, Average” value is 4.8 and the “Global Deterioration Scale, 6 months, Average” value worked out at 5.3. Besides, in the experiment with Alzheimer's disease [1] (individual AD patient), the “Global Deterioration Scale, 3 months” value is 5 (2×) and 7 and 5.5 and 4.5 and 1.5 and 8 and 3.25 and 3.5; the “Global Deterioration Scale, 6 months” value is 6.5 and 7 and 5 and 6 and 1 and 8 and 3.5 and 5.5. For the same compound, the “[β amyloid 1-42] in the CSF, % change” value in the experiment on β-amyloid protein (1-42) (1 month as a percentage of the baseline value) was 242% and 142% (2×) and 56% and 195% and 624% and 2144%. For the same compound, the “[β amyloid 1-42] in the CSF, 1 month” value in the experiment on β-amyloid protein (1-42) (average of triplicate assays) is 2.48 and 3.92 and 0.76 and 1.78 and 2.15 and 0.31 and 1.06 and 1.29. Besides, in the experiment with plasma apolipoproteins (human, in vivo), the “total plasma apoB, apoA-1, apoA-II, apoC-II and apoC-III” value is on record as “lower”. Also, the “circulating ApoE levels” value in the experiment with plasma apolipoproteins (probucol-treated hypercholesterolemic patients) is listed as “increased”. In addition, the “effectiveness in subjects with apoE2/2 genotype” value in the experiment on plasma apolipoproteins (subjects with a very high physiological concentration of ApoE) was “totally uneffective”. Also, the “benefit in ApoE-knockout animals” value with ApoE-knockout mice was “little or no benefit”. Also, the “CIBIC-Plus evaluation for the group as a whole” value with Alzheimer's disease [2] (6 month course of treatment) was “slight deterioration”. Further, in the experiment with Alzheimer's disease [2] (average of patients), the “CIBIC Scores, 3 months, Average” value came out at 3.9 and the “CIBIC Scores, 6 months, Average” value was 5.3. Besides, in the experiment with Alzheimer's disease [2] (setting [4]), the “CIBIC Scores, 3 months” value was 3 (3×) and 5 (2×) and 4 (4×); the “CIBIC Scores, 6 months” value was 5 (4×) and 6 (3×) and 4. Also, the “extracellular amount of ApoE” value in the experiment with ApoE (1 nM, 24 hours post dosing, versus EtOH control) is “dramatically increased”. The “extracellular ApoE with increasing concentrations” value with ApoE (100 nM and 10 uM versus 1 nM) is “Further increases”. Also, the “amount of ApoE in the media at 48 hours versus 24 hours” value in the experiment with ApoE (48 hours compared with 24 hours of incubation) was “less”. Moreover, the “Lipid Peroxidation, Change (% Baseline), average” value with lipid peroxidation (1 month, average for eight patients) is 100.9 % Baseline. For the same compound, the “Lipid Peroxidation, Change (% baseline)” value in the experiment on lipid peroxidation (1 month, individual AD patient) was 100.3 % baseline and 97.4 % baseline and 94.8 % baseline and 97.5 % baseline and 104.2 % baseline and 92.8 % baseline and 103.8 % baseline and 116.1 % baseline. Further, the “Lipid Peroxidation, 1 month” value in the experiment on lipid peroxidation (individual AD patient, average of 4-6 determinations) was 0.705 Fluorescence Units and 0.686 Fluorescence Units and 0.687 Fluorescence Units and 0.692 Fluorescence Units and 0.744 Fluorescence Units and 0.691 Fluorescence Units and 0.731 Fluorescence Units and 0.824 Fluorescence Units.
